Source: US9394446B2, “Method for recovering Ru complex dye from used dye solution” (Tanaka Kikinzoku Kogyo K.K., priority 2012, dated 2016)

Experiments:
[1] = Preliminary test: dissolving property of dye solution components in ether-based solvents, alkane-based solvents and water; conditions: 25° C.; for dissolving property in Dibutyl ether: 1 mg (solvents: 1 mL) in 1 mL dibutyl ether; for dissolving property in Diethyl ether: 1 mg (solvents: 1 mL) in 1 mL diethyl ether; for dissolving property in Diisopropyl ether: 1 mg (solvents: 1 mL) in 1 mL diisopropyl ether; for dissolving property in Heptane: 1 mg (solvents: 1 mL) in 1 mL heptane; for dissolving property in Hexane: 1 mg (solvents: 1 mL) in 1 mL hexane; for dissolving property in Isoamyl ether: 1 mg (solvents: 1 mL) in 1 mL isoamyl ether; for dissolving property in Methyl propyl ether: 1 mg (solvents: 1 mL) in 1 mL methyl propyl ether; for dissolving property in Octane: 1 mg (solvents: 1 mL) in 1 mL octane; for dissolving property in Pentane: 1 mg (solvents: 1 mL) in 1 mL pentane; for dissolving property in t-Butyl methyl ether: 1 mg (solvents: 1 mL) in 1 mL t-butyl methyl ether; for dissolving property in Water: 1 mg (solvents: 1 mL) in 1 mL water, for comparison
[2] = Mixing/dissolving behaviour of DMSO in ethers (inventors' observation); assay type: physicochemical

Row | Structure (SMILES) | dissolving property in Dibutyl ether [1] | dissolving property in Diethyl ether [1] | dissolving property in Diisopropyl ether [1] | dissolving property in Heptane [1] | dissolving property in Hexane [1] | dissolving property in Isoamyl ether [1] | dissolving property in Methyl propyl ether [1] | dissolving property in Octane [1] | dissolving property in Pentane [1] | dissolving property in t-Butyl methyl ether [1] | dissolving property in Water [1] | mixing or dissolving in ethers (diethyl ether), in words [2]
1 | CC(C)(C)CCP(=O)(O)CCC(C)(C)C [DINHOP, bis-(3,3-dimethyl-butyl)-phosphinic acid] | ⊙ (those dissolved at 5 g/L or more and those fully miscible with a solvent for dye solution were labeled as “⊙” with excellent dissolving property) | ⊙ (those dissolved at 5 g/L or more and those fully miscible with a solvent for dye solution were labeled as “⊙” with excellent dissolving property) | ⊙ (those dissolved at 5 g/L or more and those fully miscible with a solvent for dye solution were labeled as “⊙” with excellent dissolving property) | ⊙ (those dissolved at 5 g/L or more and those fully miscible with a solvent for dye solution were labeled as “⊙” with excellent dissolving property) | ⊙ (those dissolved at 5 g/L or more and those fully miscible with a solvent for dye solution were labeled as “⊙” with excellent dissolving property) | ⊙ (those dissolved at 5 g/L or more and those fully miscible with a solvent for dye solution were labeled as “⊙” with excellent dissolving property) | ⊙ (those dissolved at 5 g/L or more and those fully miscible with a solvent for dye solution were labeled as “⊙” with excellent dissolving property) | ⊙ (those dissolved at 5 g/L or more and those fully miscible with a solvent for dye solution were labeled as “⊙” with excellent dissolving property) | ⊙ (those dissolved at 5 g/L or more and those fully miscible with a solvent for dye solution were labeled as “⊙” with excellent dissolving property) | ⊙ (those dissolved at 5 g/L or more and those fully miscible with a solvent for dye solution were labeled as “⊙” with excellent dissolving property) | Δ (those having the solubility of less than 0.05 g/L were labeled as “Δ” with fair dissolving property) | 
2 | C[S+](C)[O-] [DMSO, dimethyl sulfoxide] |  |  |  |  |  |  |  |  |  |  |  | hardly mixed or dissolved
3 | CCO [Ethanol, ethanol] | ⊙ (those dissolved at 5 g/L or more and those fully miscible with a solvent for dye solution were labeled as “⊙” with excellent dissolving property) | ⊙ (those dissolved at 5 g/L or more and those fully miscible with a solvent for dye solution were labeled as “⊙” with excellent dissolving property) | ⊙ (those dissolved at 5 g/L or more and those fully miscible with a solvent for dye solution were labeled as “⊙” with excellent dissolving property) | ⊙ (those dissolved at 5 g/L or more and those fully miscible with a solvent for dye solution were labeled as “⊙” with excellent dissolving property) | ⊙ (those dissolved at 5 g/L or more and those fully miscible with a solvent for dye solution were labeled as “⊙” with excellent dissolving property) | ⊙ (those dissolved at 5 g/L or more and those fully miscible with a solvent for dye solution were labeled as “⊙” with excellent dissolving property) | ⊙ (those dissolved at 5 g/L or more and those fully miscible with a solvent for dye solution were labeled as “⊙” with excellent dissolving property) | ⊙ (those dissolved at 5 g/L or more and those fully miscible with a solvent for dye solution were labeled as “⊙” with excellent dissolving property) | ⊙ (those dissolved at 5 g/L or more and those fully miscible with a solvent for dye solution were labeled as “⊙” with excellent dissolving property) | ⊙ (those dissolved at 5 g/L or more and those fully miscible with a solvent for dye solution were labeled as “⊙” with excellent dissolving property) | ⊙ (those dissolved at 5 g/L or more and those fully miscible with a solvent for dye solution were labeled as “⊙” with excellent dissolving property) | 
